According to PubChem BioAssay AID2060905 (Molecular Pharmacology Branch, DTP, NCI, 2025):
pIC50: −log10 of the molar value. “And” between values parts separate entries of the source, which are not always exact repeats. Identical values can stand only once.

Tested on: 282377-053-R-J1-PDC complex spheroid viability
Assay: Anticancer human tumor 282377-053-R-J1-PDC patient-derived colon adenocarcinoma cell line growth inhibition [RAS]
Settings: for viability, T/C: stronger effect = lower value
Summary of the method: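 Agents were tested in combination matrices in half-log decrements from a top concentration at or near clinical Cmax (10 microM if undetermined). Targets were multi-cell spheroids of tumour lines plus HUVEC and MSC stromal cells.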
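Also: spheroids exposed to agents for seven days before readout.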
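For viability, T/C in this document: luminescence viability as percent of DMSO vehicle control wells.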

O=C(c1ccc(F)c(F)c1Nc1ccc(I)cc1F)N1CC(O)([C@@H]2CCCCN2)C1 + CCn1c(-c2cc(N3CCN(C)CC3)cnc2C(C)OC)c2c3cc(ccc31)-c1csc(n1)CC(NC(=O)C1CC1C)C(=O)N1CCCC(N1)C(=O)OCC(C)(C)C2 showed a pIC50 (curve of first compound, second compound 0.000949 µM) of 7.42, a pIC50 (curve of first compound, second compound 0.003 µM) of 7.25 and a pIC50 (curve of first compound, second compound 0.00949 µM) of 7.42. The pIC50 (curve of first compound, second compound 0.03 µM) was 7.92, the pIC50 (curve of first compound, second compound 0.0949 µM) was 7.75 and the pIC50 (curve of first compound, second compound 0.3 µM) was 7.84. For the same compound, the viability, T/C (second compound 0.000949 µM, first compound 0.00316 µM) was 68.3%, the viability, T/C (second compound 0.000949 µM, first compound 0.01 µM) was 65.3% and the viability, T/C (second compound 0.000949 µM, first compound 0.0316 µM) was 49.6%. It also gave a viability, T/C (second compound 0.000949 µM, first compound 0.1 µM) of 39.9%, a viability, T/C (second compound 0.000949 µM, first compound 0.316 µM) of 27.2% and a viability, T/C (second compound 0.000949 µM, first compound 1 µM) of 16.9%. The viability, T/C (second compound 0.003 µM, first compound 0.00316 µM) was 70.3%, the viability, T/C (second compound 0.003 µM, first compound 0.01 µM) was 61.9% and the viability, T/C (second compound 0.003 µM, first compound 0.0316 µM) was 69.6%. It also gave a viability, T/C (second compound 0.003 µM, first compound 0.1 µM) of 33.2%, a viability, T/C (second compound 0.003 µM, first compound 0.316 µM) of 26.1% and a viability, T/C (second compound 0.003 µM, first compound 1 µM) of 14.6%. The viability, T/C (second compound 0.00949 µM, first compound 0.00316 µM) was 68%, the viability, T/C (second compound 0.00949 µM, first compound 0.01 µM) was 67.4% and the viability, T/C (second compound 0.00949 µM, first compound 0.0316 µM) was 51.7%. It also gave a viability, T/C (second compound 0.00949 µM, first compound 0.1 µM) of 34%, a viability, T/C (second compound 0.00949 µM, first compound 0.316 µM) of 22.1% and a viability, T/C (second compound 0.00949 µM, first compound 1 µM) of 16%. For the same compound, the viability, T/C (second compound 0.03 µM, first compound 0.00316 µM) was 77.4%, the viability, T/C (second compound 0.03 µM, first compound 0.01 µM) was 43% and the viability, T/C (second compound 0.03 µM, first compound 0.0316 µM) was 45.9%. For the same compound, the viability, T/C (second compound 0.03 µM, first compound 0.1 µM) was 26.7%, the viability, T/C (second compound 0.03 µM, first compound 0.316 µM) was 20.6% and the viability, T/C (second compound 0.03 µM, first compound 1 µM) was 15.4%. The viability, T/C (second compound 0.0949 µM, first compound 0.00316 µM) was 75.9%, the viability, T/C (second compound 0.0949 µM, first compound 0.01 µM) was 68% and the viability, T/C (second compound 0.0949 µM, first compound 0.0316 µM) was 32%. The viability, T/C (second compound 0.0949 µM, first compound 0.1 µM) was 23.8%, the viability, T/C (second compound 0.0949 µM, first compound 0.316 µM) was 18.1% and the viability, T/C (second compound 0.0949 µM, first compound 1 µM) was 13.8%. It also gave a viability, T/C (second compound 0.3 µM, first compound 0.00316 µM) of 67.8%, a viability, T/C (second compound 0.3 µM, first compound 0.01 µM) of 58.6% and a viability, T/C (second compound 0.3 µM, first compound 0.0316 µM) of 31.1%. It also gave a viability, T/C (second compound 0.3 µM, first compound 0.1 µM) of 21.5%, a viability, T/C (second compound 0.3 µM, first compound 0.316 µM) of 18.8% and a viability, T/C (second compound 0.3 µM, first compound 1 µM) of 15.8%.
For Cc1nc(N2CCC3(CC2)COC(C)C3N)c(CO)nc1Sc1ccnc(N)c1Cl (configuration not stated) + C=CC(=O)N1CCN(c2nc(OCC3CCCN3C)nc3c(F)c(-c4nc(N)cc(C)c4C(F)(F)F)c(Cl)cc23)C(C)C1, the pIC50 (curve of first compound, second compound 0.00316 µM) was < 5.00, the pIC50 (curve of first compound, second compound 0.01 µM) was < 5.00 and the pIC50 (curve of first compound, second compound 0.0316 µM) was < 5.00. The pIC50 (curve of first compound, second compound 0.1 µM) was < 5.00, the pIC50 (curve of first compound, second compound 0.316 µM) was < 5.00 and the pIC50 (curve of first compound, second compound 1 µM) was < 5.00. The viability, T/C (second compound 0.00316 µM, first compound 0.0316 µM) was 111%, the viability, T/C (second compound 0.00316 µM, first compound 0.1 µM) was 101% and the viability, T/C (second compound 0.00316 µM, first compound 0.316 µM) was 118%. The viability, T/C (second compound 0.00316 µM, first compound 1 µM) was 103%, the viability, T/C (second compound 0.00316 µM, first compound 3.16 µM) was 108% and the viability, T/C (second compound 0.00316 µM, first compound 10 µM) was 116%. For the same compound, the viability, T/C (second compound 0.01 µM, first compound 0.0316 µM) was 100%, the viability, T/C (second compound 0.01 µM, first compound 0.1 µM) was 122% and the viability, T/C (second compound 0.01 µM, first compound 0.316 µM) was 103%. The viability, T/C (second compound 0.01 µM, first compound 1 µM) was 109%, the viability, T/C (second compound 0.01 µM, first compound 3.16 µM) was 92.5% and the viability, T/C (second compound 0.01 µM, first compound 10 µM) was 127%. For the same compound, the viability, T/C (second compound 0.0316 µM, first compound 0.0316 µM) was 93.6%, the viability, T/C (second compound 0.0316 µM, first compound 0.1 µM) was 98.3% and the viability, T/C (second compound 0.0316 µM, first compound 0.316 µM) was 109%. The viability, T/C (second compound 0.0316 µM, first compound 1 µM) was 82.8%, the viability, T/C (second compound 0.0316 µM, first compound 3.16 µM) was 76.3% and the viability, T/C (second compound 0.0316 µM, first compound 10 µM) was 124%. For the same compound, the viability, T/C (second compound 0.1 µM, first compound 0.0316 µM) was 89.5%, the viability, T/C (second compound 0.1 µM, first compound 0.1 µM) was 92.4% and the viability, T/C (second compound 0.1 µM, first compound 0.316 µM) was 110%. The viability, T/C (second compound 0.1 µM, first compound 1 µM) was 112%, the viability, T/C (second compound 0.1 µM, first compound 3.16 µM) was 105% and the viability, T/C (second compound 0.1 µM, first compound 10 µM) was 110%. It also gave a viability, T/C (second compound 0.316 µM, first compound 0.0316 µM) of 103%, a viability, T/C (second compound 0.316 µM, first compound 0.1 µM) of 96.6% and a viability, T/C (second compound 0.316 µM, first compound 0.316 µM) of 85.5%. For the same compound, the viability, T/C (second compound 0.316 µM, first compound 1 µM) was 101%, the viability, T/C (second compound 0.316 µM, first compound 3.16 µM) was 100% and the viability, T/C (second compound 0.316 µM, first compound 10 µM) was 108%. It also gave a viability, T/C (second compound 1 µM, first compound 0.0316 µM) of 106%, a viability, T/C (second compound 1 µM, first compound 0.1 µM) of 113% and a viability, T/C (second compound 1 µM, first compound 0.316 µM) of 118%. The viability, T/C (second compound 1 µM, first compound 1 µM) was 86.2%, the viability, T/C (second compound 1 µM, first compound 3.16 µM) was 110% and the viability, T/C (second compound 1 µM, first compound 10 µM) was 101%.
Nc1ccn(C2OC(CO)C(O)C2(F)F)c(=O)n1 (configuration not stated) was tested, and the viability, T/C (compound 0.00316 µM) was 94.8% [middle of 4 runs], the viability, T/C (compound 0.01 µM) was 101% [middle of 4 runs] and the pIC50 (curve of compound) was < 6.00 and 6.66 and 6.56.
